Reference: paper PMC6321252 (Molecules, 2018)

Key:
Caco-2 cells = experiment: Cell viability (MTT assay) in Caco-2 cells; type: cell-based; details: BB 12.5 to 50 μM, 24 h
Method: The cells were treated with different doses of compounds and incubated for 24 h. Cell viability was determined using the MTT assay. Briefly, the cells were incubated with the MTT reagent (0.5 mg/mL) at 37 °C for 4 h, and the absorbency at a wavelength of 492 nm was measured using FlexStation 3 (Molecular Devices, Sunnyvale, CA, USA). The percentage of optical density was calculated by comparing with that of the control group.

P-gp = details: cited from earlier work
[1] = Transepithelial transport of BB across Caco-2 cell monolayers; type: in vitro ADME; details: human, read-out: efflux ratio R = Papp(B-A)/Papp(A-B) of BB
Method: (§1) Monolayers were employed at 21 days after seeding. To ensure the integrity of each cell monolayer, transepithelial electrical resistance was determined. Subsequently, cell monolayers were incubated with compounds in fresh incubation media from either the AP or BL side for designated time periods at 37 °C. The volume of incubation media on the AP and BL sides was 0.5 and 1.5 mL, respectively, and a 30 µL aliquot of the incubation solution was withdrawn at designated time points (60, 120, 180, and 240 min) from the receiver compartment and replaced with the same volume of a fresh prewarmed HBSS buffer.
(§2) BB concentrations were detected through LC–MS/MS. Apparent permeability (Papp) was calculated as follows:Papp = (dQ/dt) × VA/(C0 × A)(1) where dQ/dt is the permeability rate, A is the surface area of the monolayer, and C0 is the initial concentration of the drug.

Caco-2 cell monolayers = experiment: as above; type: in vitro ADME
Method: as §1, §2

[2] = set-up: method as in PMID 21637946; details: cited from earlier work
db/db mice = experiment: Hypoglycemic study in diabetic db/db mice; type: in vivo, C57BLKS/J db/db mice; details: for AUC for the IPTT vs nontreated db/db mice / AUC for the OGTT vs nontreated db/db mice: 5 weeks administration; for AUC for the IPTT vs nontreated db/db mice / AUC for the OGTT vs nontreated db/db mice / effect on body weight (obesity): metformin 150 mg/kg, BB 200 mg/kg, BB 200 mg/kg plus OPCs 60 mg/kg; for effect on body weight (obesity): repeated oral administration 4 weeks
Method: Male C57BLKS/J db/db and db/m mice were obtained from the Model Animal Research Center of Nanjing University (Nanjing, China). The mice were housed in a temperature-and humidity-controlled room with free access to standard chow and water under a 12/12-h light/dark cycle. At 6 weeks of age, the diabetic db/db mice were randomly divided into 4 groups (n = 10 per group). […] After 6 h of fasting, their blood glucose was monitored using blood from the tail vein and a glucometer (Accu-CHEK, Roche, IN, USA) every week. On Days 33 and 35 after drug administration, the mice were fasted for 12 and 6 h to perform an OGTT and IPTT, respectively. At the end of the experimental period, the mice’s blood was collected for further studies. Serum TG and TC levels were assayed using commercial enzyme assay kits (Rongsheng, Shanghai, China).

SMILES | cytotoxicity on Caco-2 cells (MTT) (Caco-2 cells) | P-gp substrate status (P-gp) | efflux ratio at 240 min [1] | Papp(A-B) of BB (Caco-2 cell monolayers; apical to basolateral) | Papp(B-A) of BB (Caco-2 cell monolayers; basolateral to apical) | oral bioavailability [2] [%] | AUC for the IPTT vs nontreated db/db mice (db/db mice; p < 0.001 vs. control) | AUC for the OGTT vs nontreated db/db mice (db/db mice; p < 0.001 vs. control) | hepatotoxicity (from serum ALT and AST) (db/db mice; 5 weeks, BB 200 mg/kg with or without OPCs 60 mg/kg) | lowering of fasting blood glucose (FBG) (db/db mice; oral, 4 weeks, BB 200 mg/kg with or without OPCs 60 mg/kg, p < 0.001 vs. control) [%] | effect on body weight (obesity) (db/db mice)
COc1ccc2cc3[n+](cc2c1OC)CCc1cc2c(cc1-3)OCO2 [BB, Berberine] | no toxic effect | substrate of P-gp | 7.74 ± 1.13 | 0.146 ± 0.012 ×10^−6 | 1.001 ± 0.049 ×10^−6 | < 1 | significantly lower | significantly lower | did not cause hepatotoxicity | 35 | no significant effect
CN(C)C(=N)N=C(N)N [metformin] |  |  |  |  |  |  | significantly lower | significantly lower |  |  | no significant effect
